Assay results reported in US20260315434A1, “USE OF GUAIACOL SESQUITERPENE LACTONE DERIVATIVES” (NANJING UNIVERSITY OF CHINESE MEDICINE, priority 2023, published 2026).
In brackets after ≈: the same amount, converted by molar mass.

Tests used:
T cells / MDSCs = assay: Promotion of T cell proliferation in a co-culture model of MDSCs and T cells; format: cell-based, mouse; conditions: for activation at 1 µM: Mus musculus, T-cell, 12 h, read-out: T-cell proliferation rate (%), 1 μM, MDSCs treated 12 hours, co-culture of MDSCs and T cells, compared to the control group
Method: Under sterile conditions, the tibia was removed, both ends of the bone were cut, and bone marrow was repeatedly flushed into a 15 mL centrifuge tube using a 1 mL syringe filled with culture medium. Centrifuge at 1600 rpm for 5 min to collect bone marrow cells. […] The spleen cell suspension was then transferred into a 15 mL centrifuge tube. Centrifuge at 1600 rpm for 5 min to collect T cells. Wash twice with 1×PBS. Resuspend the centrifuged T cells in 1 mL PBS and add 1 mL of 10 μM CFDA-SE solution. Incubate at room temperature for 8 min. […] After drug administration, collect MDSC cells into centrifuge tubes. Centrifuge at 1600 rpm for 5 min, remove supernatant, resuspend in 1 mL fresh medium, and plate. Add 1 mL stimulated activated T cells (1:1 ratio) for 48 h co-culture. After incubation, collect cells into centrifuge tubes, wash twice with PBS, and incubate with Fc antibody at room temperature in the dark for 10 min. Add CD3-labeled flow cytometry antibody and incubate at 4° C. in the dark for 30 min. After incubation, wash cells with PBS, resuspend in 300 μL PBS, and analyze by flow cytometry.

[1] = Water solubility testing of compounds (HPLC); conditions: deionized water, 37 °C
[2] = Conversion (release) of prodrug salts to parent compound in mouse plasma; format: in vitro ADME; conditions: mouse, plasma, 37 °C, read-out: Release rate (conversion to Compound 1)
Method: (§1) Pharmaceutically acceptable salts of guaiane-type sesquiterpene lactone derivatives were selected and evaluated for their conversion rates to Compound 1 and Compound 83 in plasma and HEPES buffer, with results shown in Tables 2-1, 2-2, 3-1, and 3-2.
Plasma Preparation: Collect mouse plasma into an EP tube pre-loaded with sodium heparin, centrifuge at 8000 rpm for 10 minutes at 4° C., and then collect the supernatant.
(§2) Sample Analysis: Dissolve 0.6 mg of the compound in 250 μL of deionized water separately. Add 250 μL of mouse serum or HEPES 7.4 solution to the sample, incubate at a constant temperature of 37° C., and collect samples at different time points. Pipette 20 μL of the sample to an EP tube, add 60 μL of methanol, vortex to mix thoroughly, and centrifuge at 12,000 rpm at 4° C. for 10 min. At 1 h, 2 h, 4 h, 8 h, and 12 h respectively, collect the supernatant for HPLC analysis. Inject 10 μL of sample and record the corresponding peak areas. Chromatographic conditions: Hanbang C18 column (4.6×250 mm, 5 μm); mobile phase: acetonitrile: […] ammonium formate solution=60:40; flow rate 1.0 mL/min; detection wavelength 210 nm; column temperature 30° C.

[3] = Conversion (release) of prodrug salts to parent compound in HEPES buffer pH 7.4; format: in vitro ADME; conditions: hepes buffer, pH 7.4, HEPES pH 7.4, 37 °C, read-out: Release rate (conversion to Compound 1)
Method: as §1
Experimental Method: Preparation of HEPES 7.4 Solution: Dissolve 1.6 g NaCl, 0.074 g KCl, 0.027 g Na2HPO4, 0.2 g glucose, and 1 g 4-(2-Hydroxyethyl)piperazine-1-ethanesulfonic acid (HEPES) solution in 90 mL distilled water. Adjust the pH to 7.4 using 0.5 M NaOH, then dilute to a final volume 100 mL with distilled water.
as §2

SMILES	activation at 1 µM (T cells / MDSCs) [%]	Water-solubility [1] [mg/mL]	metabolised at 1 h [2] [%]	metabolised at 2 h [2] [%]	metabolised at 4 h [2] [%]	metabolised at 8 h [2] [%]	metabolised at 12 h [2] [%]	T-cell proliferation rate (%) (T cells / MDSCs; 1 μM, MDSCs treated 12 hours, co-culture of MDSCs and T cells, compared to the control group)	degraded at 1 h [3] [%]	degraded at 2 h [3] [%]	degraded at 4 h [3] [%]	degraded at 8 h [3] [%]	degraded at 12 h [3] [%]	solubility ([1]; water, Water-solubility) [mg/mL]
C[C@@]12CC[C@@H]3[C@H](OC(=O)[C@H]3CN3CCCC3)[C@@H]3[C@]1(CC[C@@]3(C)O)C2 [Compound 3]	20 to 40	1.305	–	–	–	–	–	–	–	–	–	–	–	–
C[C@@]12CC[C@@H]3[C@H](OC(=O)[C@H]3CN3CCCCC3)[C@@H]3[C@]1(CC[C@@]3(C)O)C2 [Compound 5]	20 to 40	0.730	–	–	–	–	–	–	–	–	–	–	–	–
C[C@@]12CC[C@@H]3[C@H](OC(=O)[C@H]3CN3CCOCC3)[C@@H]3[C@]1(CC[C@@]3(C)O)C2 [Compound 6]	0 to 20	0.668	–	–	–	–	–	–	–	–	–	–	–	–
CCOC(=O)[C@@H]1CCCN1C[C@@H]1C(=O)O[C@H]2[C@H]1CC[C@@]1(C)C[C@]13CC[C@@](C)(O)[C@H]23 [Compound 23]	–	362.3	7.2	14.3	26.8	45.1	52.8	+ (T-cell proliferation rate within the 0-20% range compared to the control group)	6.2	14.3	26.8	41.1	52.8	–
C[C@@]12CC[C@@H]3[C@H](OC(=O)[C@H]3CN3CCCCC3)[C@@H]3[C@]1(CC[C@@]3(C)O)C2 [Compound 24]	–	300.5	7.7	17.1	27.7	47.8	57.9	–	6.8	15.1	26.7	42.8	54	–
C[C@@]12CC[C@@H]3[C@H](OC(=O)[C@H]3CN3CCOCC3)[C@@H]3[C@]1(CC[C@@]3(C)O)C2 [Compound 25]	–	–	6.8	14.1	25.7	43.8	51.8	–	6.8	14.1	26.1	42.8	51.8	342 (≈ 979 mM)
CCCN(CCC)C[C@@H]1C(=O)O[C@H]2[C@H]1CC[C@@]1(C)C[C@]13CC[C@@](C)(O)[C@H]23 [Compound 29]	–	289.5	6.8	14.2	24.6	40.2	49	–	6.8	14.2	24.6	40.2	49.8	–
CCCCN(CCCC)C[C@@H]1C(=O)O[C@H]2[C@H]1CC[C@@]1(C)C[C@]13CC[C@@](C)(O)[C@H]23 [Compound 30]	–	228.4	6.6	13.6	23.8	40.8	48.8	–	6.6	14.6	23.8	40.8	49.8	–
CC(C)N(C[C@@H]1C(=O)O[C@H]2[C@H]1CC[C@@]1(C)C[C@]13CC[C@@](C)(O)[C@H]23)C(C)C [Compound 31]	–	254.6	6.5	13.9	24.4	40.2	48.5	–	6.7	14	23	41.2	49.5	–
C[C@@]12CC[C@@H]3[C@H](OC(=O)[C@H]3CN3CC4CCCC4C3)[C@@H]3[C@]1(CC[C@@]3(C)O)C2 (stereo partly drawn) [Compound 32]	–	100.8	6.3	14.4	25.2	43.2	51.4	–	6.9	15.4	26.2	42.2	51.2	–
C[C@@]12CC[C@@H]3[C@H](OC(=O)[C@H]3CN3CCC3)[C@@H]3[C@]1(CC[C@@]3(C)O)C2 [Compound 33]	–	145.5	6.9	14.8	26	42.8	50.7	–	6.9	15.8	26	41.8	51.1	–
C[C@@]12CC[C@@H]3[C@H](OC(=O)[C@H]3CN3CCC4(CCCC4)CC3)[C@@H]3[C@]1(CC[C@@]3(C)O)C2 [Compound 34]	–	128.6	7.8	17.2	28.6	47.6	58.8	–	7	16.2	27.6	43.6	54.4	–
C[C@@]12CC[C@@H]3[C@H](OC(=O)[C@H]3CN3CCC(N4CCCCC4)CC3)[C@@H]3[C@]1(CC[C@@]3(C)O)C2 [Compound 35]	–	212.6	6.8	13.6	26.4	44.8	52.5	–	6.8	14.6	26.4	43.8	52.5	–
C[C@@]12CC[C@@H]3[C@H](OC(=O)[C@H]3CN3CCC(N4CCOCC4)CC3)[C@@H]3[C@]1(CC[C@@]3(C)O)C2 [Compound 36]	–	234.6	6.6	14.8	26	43.6	52.1	–	6.9	14.8	26	43.6	52.4	–
C[C@@]12CC[C@@H]3[C@H](OC(=O)[C@H]3CN3CCC4(CC3)CC4)[C@@H]3[C@]1(CC[C@@]3(C)O)C2 [Compound 37]	–	357.5	8.2	17.8	29.3	48.1	67.8	–	7.2	16.8	28.3	44.1	65.8	–
C[C@@]12CC[C@@H]3[C@H](OC(=O)[C@H]3CN3CCCCCCC3)[C@@H]3[C@]1(CC[C@@]3(C)O)C2 [Compound 38]	–	250.9	6.1	14.5	25.4	41.4	49.7	–	6.9	14.8	25.4	41.4	50.7	–
